Experimental data reported in paper PMC4469081 (Bioorganic & medicinal chemistry letters, 2015).
Entries after “also recorded” stand apart in the source; their conditions may differ. Each block holds one compound with its values, some of them ahead of it.

How the values were obtained:
Assay type in all cases: cell-based
ldlA[mSR-BI] cells = assay: Cytotoxicity in the assay cell line; conditions: 24 h incubation stated for 1a
[1] = target: T1, mouse SR-BI (ldlA[mSR-BI]) (Mus musculus, UniProt Q61009); assay: DiI-HDL uptake assay
T1 sequence (Q61009 1-509): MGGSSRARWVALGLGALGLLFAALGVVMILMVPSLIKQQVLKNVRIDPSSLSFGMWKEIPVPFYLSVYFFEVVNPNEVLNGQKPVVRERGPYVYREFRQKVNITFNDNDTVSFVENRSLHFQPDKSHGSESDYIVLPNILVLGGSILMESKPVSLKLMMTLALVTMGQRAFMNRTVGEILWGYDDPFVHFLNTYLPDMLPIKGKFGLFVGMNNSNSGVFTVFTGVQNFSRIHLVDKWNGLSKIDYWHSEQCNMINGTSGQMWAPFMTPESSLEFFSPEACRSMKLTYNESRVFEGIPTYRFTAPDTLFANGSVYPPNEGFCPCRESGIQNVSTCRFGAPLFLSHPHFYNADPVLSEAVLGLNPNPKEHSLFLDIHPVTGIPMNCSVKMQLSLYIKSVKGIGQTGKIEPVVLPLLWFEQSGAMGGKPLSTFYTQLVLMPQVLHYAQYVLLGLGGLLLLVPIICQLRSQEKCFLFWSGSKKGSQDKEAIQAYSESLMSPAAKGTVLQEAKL

[2] = system: receptor-mediated endocytosis of transferrin by ldlA[mSR-BI] cells; assay: Endocytosis of Alexa-594-labeled transferrin; conditions: concentrations up to 35 μM

SMILES: COc1ccc(-c2nnn(CC(=O)N(C3CCCCC3)C(C)C(=O)NC3CCCC3)n2)cc1OC (centres unmarked) [Compound 1a]
Cytotoxicity (ldlA[mSR-BI] cells): no measurable cytotoxicity

Fold more potent than its enantiomer 5d ([1]; (R)-isomer vs (S)-isomer): 100 fold
SMILES: C[C@H](C(=O)NC1CCCC1)N(C(=O)Cn1nnc(-c2ccc3c(c2)OCO3)n1)C1CCCCC1 [Compound 5e]
Inhibition of transferrin endocytosis [2]: no inhibition
Cytotoxicity (ldlA[mSR-BI] cells; listed as ML279): non-toxic; also recorded: not cytotoxic

Fold decrease in activity relative to 1a ([1]; carbon atom inserted between cyclohexyl group and backbone nitrogen): greater than 20 fold
SMILES: COc1ccc(-c2nnn(CC(=O)N(CC3CCCCC3)C(C)C(=O)NC3CCCC3)n2)cc1OC (centres unmarked) [Compound 4d]
